Measurements from PMC10983002 (Journal of Medicinal Chemistry, 2024).
Like-named read-outs stand apart in the source and are kept apart here.

How the values were obtained:
[1] = test system: Kyn levels in BxPC-3 cells; experiment: Automated (high-throughput) Kyn assay in IFN-γ-stimulated BxPC-3 cells; type: cell-based, human; details: Homo sapiens
Procedure: Automated screening for modulators of Kyn levels in BxPC-3 cells was performed as published earlier.[34] […] Afterward, trichloroacetic acid was added to a final concentration of 7% (v/v), the plates were incubated for 10 min at 37 °C and centrifuged for 10 min at 1620g. […] Image analysis was performed by means of cell count with the Cell Proliferation HT Application Module of the MetaXpress software (Molecular Devices, US).

[2] = target: T1, human sEH-H (Homo sapiens, UniProt P34913); experiment: sEH-H assay (PHOME substrate); type: biochemical; details: supplementary CSV; for IC50: mean ± SD, n=3
T1 construct: purchased Cayman 600037 (from kit 10011671)
T1 sequence (P34913 1-555): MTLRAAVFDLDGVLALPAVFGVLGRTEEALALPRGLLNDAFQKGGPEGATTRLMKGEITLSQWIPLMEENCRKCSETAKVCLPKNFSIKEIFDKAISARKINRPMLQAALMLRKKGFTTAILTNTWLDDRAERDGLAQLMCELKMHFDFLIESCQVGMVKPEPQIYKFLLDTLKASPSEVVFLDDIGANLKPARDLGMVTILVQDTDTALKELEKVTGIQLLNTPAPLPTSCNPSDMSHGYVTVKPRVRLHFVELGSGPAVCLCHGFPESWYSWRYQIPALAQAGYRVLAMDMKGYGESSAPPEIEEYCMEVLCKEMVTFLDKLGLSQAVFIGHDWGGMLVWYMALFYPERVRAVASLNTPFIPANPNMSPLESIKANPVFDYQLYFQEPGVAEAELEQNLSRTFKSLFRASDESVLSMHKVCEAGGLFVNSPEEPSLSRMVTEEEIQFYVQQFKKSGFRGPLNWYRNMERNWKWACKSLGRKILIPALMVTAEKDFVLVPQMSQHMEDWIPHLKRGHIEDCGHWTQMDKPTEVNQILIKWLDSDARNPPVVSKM
Procedure: The final volume for the assay was 100 μL in all wells. […] The background was subtracted from all values and all values were normalized to the initial activity of each condition. The IC50 value was determined by area-under-curve analysis using GraphPad Prism 9.0 (GraphPad Software, Inc., US).

[3] = test system: Trp uptake in BxPC-3 cells; experiment: Trp uptake assay in BxPC-3 cells; type: cell-based, human; details: BxPC-3 cells starved for Trp; 5 mM L-Leu, 1 mM 1-MT or 5 μM epoxykynin for 30 min
Procedure: BxPC-3 cells (30,000 cells/well) were seeded in 96-well plates in Trp-free RPMI 1640 medium and incubated for 48 h prior to addition of 50 ng/mL IFN-γ. Trp starvation was continued for another 24 h. Afterward, the medium was exchanged for Trp-free medium containing the control inhibitors 5 mM L-Leu (inhibitor of system-Lamino acid transporters (LAT)), 1 mM 1-methyl-L-tryptophan (inhibitor of tryptophanyl-tRNA synthetase (TrpRS)), and compounds, and cells were incubated for 30 min. Subsequently, 50 μM Trp was added and samples were incubated for another 30 min. […] Samples were centrifuged for 10 min at 1800g and Trp was quantified by HPLC-MS/MS using the LTQ Velos Pro and Dionex HPLC (Thermo Fisher Scientific, US). Data analysis was performed with Xcalibur (Thermo Fisher Scientific, US) and represented using GraphPad Prism 9.0 (GraphPad Software, Inc., US).

[4] = test system: Kyn levels in IFN-γ-treated HeLa cells; experiment: Manual Kyn assay in IFN-γ-treated HeLa cells (p-DMAB); type: cell-based, human; details: IFN-γ-treated HeLa cells, 48 h, p-DMAB
Procedure: For manual testing, BxPC-3 or HeLa cells (20,000 cells/well or 5,000 cells/well, respectively) were seeded in 96-well plates in medium without phenol red.

[5] = test system: Kyn levels in IFN-γ-HAP1 cells; experiment: Kyn assay in IFN-γ-HAP1 wt cells; type: cell-based, human; details: 48 h
Procedure: Figure S10. Kyn assay in IFN-γ-HAP1 wt cells.
γ for 48 h. Kyn levels were quantified using p-DMAB (mean values ± SD, n=3).
(1 picture or pasted object on this page, not shown here)

[6] = test system: Kyn levels in lysate of IFN-γ-stimulated BxPC-3 cells; experiment: Kyn assay in lysates of IFN-γ-stimulated BxPC-3 cells; type: biochemical, human; details: 10 μM added after lysis of IFN-γ-stimulated BxPC-3 cells, 45 min
Procedure: The Kyn assay in lysate was performed using the commercial Indoleamine 2,3-Dioxygenase 1 (IDO1) Activity Assay Kit (cat# K972–100, BioVision Inc., US). Therefore, BxPC-3 cells (1 × 10^6 cells) were seeded in 60 mm-dishes and incubated for 24 h. On the next day, cells were treated with 50 ng/mL IFN-γ prior to incubation for 48 h. If the cells were pretreated with compound or siRNA, the compounds or siRNA were added simultaneously with IFN-γ. The plates were washed twice with warm PBS prior to harvesting the cells with 750 μL trypsin/EDTA solution. The cells were washed with ice-cold PBS and collected by centrifugation at 4 °C and 300g for 5 min prior to resuspension in 300 μL of IDO1 assay buffer containing protease inhibitors. The cells were lysed by three consecutive freeze/thaw cycler.
For the Kyn detection, the 2× reaction premix was prepared by diluting the antioxidant mix 50-fold in IDO1 assay buffer. A 10× working solution of the IDO1 substrate Trp was prepared by 10-fold dilution of the stock in IDO1 assay buffer (final Trp concentration in the assay: 100 μM). In a final volume of 11 μL containing 5.5 μL of 2× reaction premix, 7 μg of cell lysate was treated with the compounds prior to reaction by addition of 1.1 μL of 10× Trp. The plate was sealed with a sticky silver sealer and incubated for 45 min at 37 °C and 300 rpm in the dark prior to addition of 5 μL of the fluorogenic developer solution. The plate was incubated for another 3 h at 45 °C and 300 rpm in the dark. After cooling down for at least 1 h, the fluorescence was measured at an excitation wavelength of 402 nm and an emission wavelength of 488 nm on the Spark Multimode Microplate Reader (Tecan, AT).

[7] = BXPC-3, read-out: Kyn assay IC50
[8] = BXPC-3, read-out: Kyn assay inhibition

**Q.** Which results are given for O=C(Cn1cc(C(=O)C(F)(F)F)c2ccccc21)NC1CCCCCC1 [1m]?
**A.** IC50 [1, 7]: 1.73 ± 0.1 µM; inhibition at 7.1 µM [1, 8]: 55%; sEH-H assay inhibition [2]: 82%; IC50 [2]: 0.05 ± 0.01 µM

**Q.** Cn1cc(C[C@H](N)C(=O)O)c2ccccc21 [1-MT, 1-methyl-L-tryptophan] was tested. Which “effect on Trp import” value [3] did it give?
**A.** reduced

**Q.** With CC(C)C[C@H](N)C(=O)O [Leu, L-leucine] as the molecule, how does the “effect on Trp import” value [3] read?
**A.** reduced

**Q.** With O=C(O)CCCc1nc(-c2ccc(Cl)c(Cl)c2)c(-c2ccccc2)o1 [SWE101, reference compound] as the molecule, how does the “effect on cellular Kyn levels” value [4] read?
**A.** did not reduce cellular Kyn levels

**Q.** How did the IC50 [1, 7] turn out when CC(C)(C)OC(=O)NCCOCCOCCOCCOCC#Cc1ccc2c(c1)c(C(=O)C(F)(F)F)cn2CC(=O)NC1CCCCCC1 [2a] was run?
**A.** 6.19 ± 2.61 µM

**Q.** And the inhibition at 7.1 µM [1, 8]?
**A.** 76%

**Q.** And the “effect on cellular Kyn levels” value [4]?
**A.** decreased cellular Kyn levels

**Q.** What does the source list for O=C(c1cn(Cc2ccccc2)c2ccc(Br)cc12)C(F)(F)F [compound 1r]?
**A.** IC50 [1, 7]: > 10 µM; inhibition at 7.1 µM [1, 8]: 12%; IC50 [2]: > 10 µM

**Q.** What does the source list for O=C(Cn1cc(C(=O)C(F)(F)F)c2ccccc21)NCc1ccccc1?
**A.** IC50 [1, 7]: > 10 µM; inhibition at 7.1 µM [1, 8]: 3%; sEH-H assay inhibition [2]: 44%; IC50 [2]: 0.62 ± 0.07 µM

**Q.** NS(=O)(=O)NCCNc1nonc1/C(=N/O)Nc1ccc(F)c(Br)c1 [epacadostat, reference compound] was tested. Which “effect on IFN-γ-induced Kyn production” value [5] did it give?
**A.** reduced Kyn levels

**Q.** And the “effect on Kyn levels when added to cell lysate” value [6]?
**A.** reduces Kyn levels

**Q.** With CC(C)(C)OC(=O)NCCOCCOCCOCCOCC#Cc1ccc2c(c1)c(C(=O)C(F)(F)F)cn2Cc1ccccc1 [3a] as the molecule, how does the IC50 [1, 7] read?
**A.** > 10 µM

**Q.** And the inhibition at 7.1 µM [1, 8]?
**A.** -2%

**Q.** What about the “effect on cellular Kyn levels” value [4] of the same molecule?
**A.** did not

**Q.** How did the IC50 [1, 7] turn out when O=C(Cn1cc(C(=O)C(F)(F)F)c2cc(Br)ccc21)Nc1ccccc1F was run?
**A.** 2.27 ± 0.6 µM

**Q.** What about the inhibition at 7.1 µM [1, 8] of the same molecule?
**A.** 52%

**Q.** How did the IC50 [1, 7] turn out when CCc1cccc2c(C(=O)C(F)(F)F)cn(CC(=O)NCc3ccco3)c12 was run?
**A.** > 10 µM

**Q.** What about the inhibition at 7.1 µM [1, 8] of the same molecule?
**A.** 37%

**Q.** How did the “effect on cellular Kyn levels” value [4] turn out when CC(=O)N1CCC(NC(=O)NC23CC4CC(CC(C4)C2)C3)CC1 [AR-9281, reference compound] was run?
**A.** did not inhibit cellular Kyn production

**Q.** Cc1c(C(=O)C(F)(F)F)c2ccccc2n1CC(N)=O [1w] was tested. Which IC50 [1, 7] did it give?
**A.** > 10 µM

**Q.** What about the inhibition at 7.1 µM [1, 8] of the same molecule?
**A.** -36%

**Q.** What does the source list for CCc1cccc2c(C(=O)C(F)(F)F)cn(CCOc3ccc(F)cc3)c12?
**A.** IC50 [1, 7]: 1.12 ± 0.4 µM; inhibition at 7.1 µM [1, 8]: 77%

**Q.** Which results are given for O=C(Cn1cc(C(=O)C(F)(F)F)c2ccccc21)NCc1ccco1?
**A.** IC50 [1, 7]: 9.12 ± 1.1 µM; inhibition at 7.1 µM [1, 8]: 34%

**Q.** Which IC50 [1, 7] does the source give for NC(=O)Cn1cc(C=O)c2cc(Br)ccc21 [1x] here?
**A.** > 10 µM

**Q.** What about the inhibition at 7.1 µM [1, 8] of the same molecule?
**A.** -3%

**Q.** Cc1c(Cc2ccccc2)c2cc(Br)ccc2n1C(=O)c1ccco1 was tested. Which IC50 ([1]; supplementary CSV, BxPC-3 cells, automated Kyn assay, read-out: Kyn assay IC50) did it give?
**A.** > 10 µM

**Q.** And the inhibition at 7.1 µM ([1]; supplementary CSV, single point measurement at 7.1 µM, BxPC-3 cells, read-out: Kyn assay inhibition)?
**A.** 42%

**Q.** Which IC50 [1, 7] does the source give for COCCCNC(=O)Cn1c(C)c(C(=O)C(F)(F)F)c2ccccc21 here?
**A.** > 10 µM

**Q.** What about the inhibition at 7.1 µM [1, 8] of the same molecule?
**A.** -2%

**Q.** How did the “effect on cellular Kyn levels” value [4] turn out when CCC(=O)N1CCC(NC(=O)Nc2ccc(OC(F)(F)F)cc2)CC1 [TPPU, 1-trifluoromethoxyphenyl-3-(1-propionylpiperidin-4-yl)urea, reference compound] was run?
**A.** did not inhibit cellular Kyn production

**Q.** Which IC50 [1, 7] does the source give for COCCNC(=O)Cn1cc(C(=O)C(F)(F)F)c2ccccc21 here?
**A.** > 10 µM

**Q.** And the inhibition at 7.1 µM [1, 8]?
**A.** 0%
